Results: the NIST ThermoML archive (doi:10.1021/acs.jced.9b00536)

Assay: refractive index (Na D-line) (dimensionless); wn = mass fraction of the nth substance listed
Details: 100 kPa, Liquid, Standard Abbe refractometry

[Na+].[OH-] [sodium hydroxide] + O
refractive index
Details | 308.15 K | 313.15 K | 318.15 K | 323.15 K | 328.15 K | 333.15 K
w1 = 0.2 | – | 1.3801 | 1.3795 | 1.3788 | 1.3788 | 1.3794
w1 = 0.21 | – | 1.3825 | 1.3819 | 1.3815 | 1.381 | 1.3812
w1 = 0.22 | – | 1.3851 | 1.3847 | 1.3844 | 1.3836 | 1.3835
w1 = 0.23 | – | 1.3866 | 1.3858 | 1.3853 | 1.3852 | 1.3857
w1 = 0.24 | – | 1.3886 | 1.3877 | 1.3869 | 1.3862 | 1.3847
w1 = 0.25 | – | 1.3917 | 1.391 | 1.3904 | 1.39 | 1.3894
w1 = 0.26 | – | 1.3938 | 1.3931 | 1.3926 | 1.3922 | 1.3915
w1 = 0.27 | – | 1.3955 | 1.3946 | 1.3937 | 1.3929 | 1.3923
w1 = 0.28 | – | 1.3975 | 1.3968 | 1.3961 | 1.3953 | 1.3941
w1 = 0.29 | – | 1.3999 | 1.3989 | 1.3981 | 1.397 | 1.3964
w1 = 0.3 | – | 1.4011 | 1.4002 | 1.3994 | 1.3986 | 1.3977
w1 = 0.31 | – | 1.4033 | 1.4024 | 1.4016 | 1.4008 | 1.3998
w1 = 0.32 | – | 1.4044 | 1.4036 | 1.4025 | 1.4018 | 1.4008
w1 = 0.33 | – | 1.4061 | 1.4051 | 1.4042 | 1.4033 | 1.4024
w1 = 0.34 | – | 1.4086 | 1.4077 | 1.4068 | 1.4058 | 1.4048
w1 = 0.35 | 1.4114 | 1.4105 | 1.4095 | 1.4085 | 1.4076 | 1.4066
w1 = 0.36 | 1.413 | 1.4121 | 1.4111 | 1.4102 | 1.4093 | 1.4083
w1 = 0.37 | 1.4145 | 1.4136 | 1.4126 | 1.4117 | 1.4107 | 1.4098
w1 = 0.38 | 1.4163 | 1.4154 | 1.4145 | 1.4135 | 1.4126 | 1.4116
w1 = 0.39 | 1.418 | 1.417 | 1.416 | 1.4151 | 1.4142 | 1.4133
w1 = 0.4 | 1.4196 | 1.4186 | 1.4177 | 1.4167 | 1.4159 | 1.415
w1 = 0.41 | 1.4206 | 1.4196 | 1.4186 | 1.4177 | 1.4167 | 1.4159
w1 = 0.42 | 1.4221 | 1.4212 | 1.4202 | 1.4192 | 1.4183 | 1.4174
w1 = 0.43 | 1.4236 | 1.4226 | 1.4217 | 1.4207 | 1.4198 | 1.4189
w1 = 0.44 | 1.4245 | 1.4235 | 1.4226 | 1.4217 | 1.4208 | 1.4198
w1 = 0.45 | 1.4258 | 1.425 | 1.4239 | 1.423 | 1.4221 | 1.4212
w1 = 0.46 | 1.4275 | 1.4266 | 1.4256 | 1.4247 | 1.4238 | 1.4229
w1 = 0.47 | 1.4285 | 1.4275 | 1.4266 | 1.4257 | 1.4248 | 1.4239
w1 = 0.48 | 1.4301 | 1.4292 | 1.4282 | 1.4273 | 1.4264 | 1.4255
w1 = 0.49 | 1.4309 | 1.43 | 1.4289 | 1.428 | 1.4271 | 1.4263
w1 = 0.5 | 1.4319 | 1.4311 | 1.4302 | 1.4293 | 1.4284 | 1.4276
